Legend:
Pseudomonas aeruginosa = experiment: Antimicrobial testing, time-kill log reduction against P. aeruginosa; format: cell-based; conditions: for Concentration (CFU/mL): 5 ml of 1% Compound 3 solution + 20 ml PBS pH 7.2; for Log Reduction: log inoculum verification minus sample log recovery
Protocol: (§1) The preferred embodiment was tested for antimicrobial activity using the following procedure.
(§2) A 1% solution of Compound 3 was prepared in DPBS (Dulbecco's phosphate buffered saline). A 25 ml mixture of the 1% Compound 3 and PBS (phosphate buffered saline, pH 7.2 was prepared by mixing 5 ml of the 1% Compound 3 solution and 20 ml of the PBS.
(§3) A 10 ml aliquot of the above mixture was placed into each of two sterile test tubes. One test tube was inoculated with 0.1 ml of S. aureus and the other with 0.1 ml of P. aeruginosa, such that there was a final concentration of 10^6 colony-forming units (CFU)/0.1 mls.
(§4) A various time points, 1.0 ml of each inoculated test sample were removed, diluted 10× with 0.45% saline and plated on trypticase soy agar (TSA) plates.
(§5) Samples of PBS was treated in the same manner. At time points 5 mins and 60 mins, two 1 ml samples were taken and diluted 1 × and one spiked with a 0.1 ml aliquot of the S. aureus and the other spiked with 0.1 ml of the P aeruginosa.
(§6) The plates were incubated at 30-35° C. for not less than 24 hours. Concentration of CFU in the samples taken at each time point were enumerated by standard methods. The log reduction was calculated for each time period and organism. The log reduction was calculated using the formula: Log reduction=Log inoculums verification−sample log recovery.

Staphylococcus aureus = experiment: Antimicrobial testing, time-kill log reduction against S. aureus; format: cell-based; conditions: for Concentration (CFU/mL): 5 ml of 1% Compound 3 solution + 20 ml PBS pH 7.2; for Log Reduction: log inoculum verification minus sample log recovery
Protocol: as §1, §2, §3, §4, §5, §6

[1] = test system: Adenovirus Infection of Bladder Epithelium; conditions: pretreatment agent; Ramesh et al., Molecular Therapy 2004; cited from earlier work
Listeria Monocytogenes = conditions: in conjunction with certain organic acids; J. Applied Bacteriol. 1996; cited from earlier work
[2] = antimicrobial if greater than 5 log reduction

Row | Molecule | Concentration (CFU/mL) (Pseudomonas aeruginosa; 5 minutes) | Log Reduction (Pseudomonas aeruginosa; 5 minutes) | Concentration (CFU/mL) (Pseudomonas aeruginosa; 15 minutes) | Log Reduction (Pseudomonas aeruginosa; 15 minutes) | Concentration (CFU/mL) (Pseudomonas aeruginosa; 30 minutes) | Log Reduction (Pseudomonas aeruginosa; 30 minutes) | Concentration (CFU/mL) (Pseudomonas aeruginosa; 60 minutes) | antimicrobial effect (Pseudomonas aeruginosa; [2]) | Concentration (CFU/mL) (Staphylococcus aureus; 5 minutes) | Log Reduction (Staphylococcus aureus; 5 minutes) | Concentration (CFU/mL) (Staphylococcus aureus; 15 minutes) | Log Reduction (Staphylococcus aureus; 15 minutes) | Concentration (CFU/mL) (Staphylococcus aureus; 30 minutes) | Log Reduction (Staphylococcus aureus; 30 minutes) | Concentration (CFU/mL) (Staphylococcus aureus; 60 minutes) | Log Reduction (Staphylococcus aureus; 60 minutes) | antimicrobial effect (Staphylococcus aureus; [2]) | increasing the effectiveness of gene and oncolytic virus therapy [1] | anti-microbial against Listeria Monocytogenes (Listeria Monocytogenes)
1 | CCCCCCCCCCCC(=O)OCC1O[C@H](O[C@@]2(CCl)O[C@H](CCl)C(O)C2O)C(O)C(O)[C@H]1Cl (stereo in doubt) [Compound 3, 1′,6′-Dichloro-1′,6′-dideoxy-β-D-fructofuranosyl-4-chloro-4-deoxy-6-O-monododecanoate-α-D-galactopyranoside] | 1.53 × 10^6 CFU/mL | 3.5 | 1.1 × 10^6 CFU/mL | 3.7 | 1.21 × 10^6 CFU/mL | 3.6 | TNTC* | not | 6.9 × 10^5 CFU/mL | 4 | 4.3 × 10^4 CFU/mL | 5.2 | 1.41 × 10^4 CFU/mL | 5.7 | 2.9 × 10^3 CFU/mL | 6.3 | has antimicrobial effect | – | –
2 | CCCCCCCCCCCCO[C@@H]1O[C@H](CO)[C@@H](O[C@H]2O[C@H](CO)[C@@H](O)[C@H](O)[C@H]2O)[C@H](O)[C@H]1O [dodecyl maltoside] | – | – | – | – | – | – | – | – | – | – | – | – | – | – | – | – | – | effective | –
3 | sucrose monolaurate | – | – | – | – | – | – | – | – | – | – | – | – | – | – | – | – | – | effective | effective anti-microbial

From patent US20090318381A1, “Halogenated alkyl di-and trisaccharides, pharmaceutical formulations, diagnostic kits and methods of treatment” (priority 2006, published 2009)
